“And” between values parts separate entries of the source, which are not always exact repeats. Equal values may be shown once. Read-outs that look alike come from different tables or passages of the source.
Experiments:
[1] = target: T1, c-Src (Homo sapiens, UniProt P12931); assay: c-Src Kinase Assay (ELISA format); assay type: biochemical
T1 construct: purchased Upstate Biotechnologies
Description: Inhibitors of Src (partially purified preparation purchased from Upstate Biotechnologies) tyrosine kinase activity are analyzed in an ELISA format. […] Horseradish Peroxidase (HRP)-conjugated anti-phosphotyrosine is used to detect phosphorylated peptide via a color reaction. Conditions recommended by the manufacturer are employed.
Reaction conditions: Five microliter aliquots of each compound prepared fresh at the time of the assay are added as a solution in 10mM HEPES pH 7.5, 10% DMSO to the reaction well. Thirty-five microliters of reaction mix containing Src, buffer and peptide/bovine serum albumin mix are added to the compound wells and incubated at 30°C for 10 minutes (reaction buffer: 50mM TrisHCl pH 7.5, 10mM MgCl2, 0.1mM EGTA, 0.5mM Na3VO4). The reaction is started by addition of 10 microliters of ATP, incubated at 30°C for 1 hour, and stopped by addition of 20 microliters of 0.5M EDTA. The reaction mixture with the phosphorylated peptide is then transferred to a streptavidin-coated microtiter plate (provided in the kit) and allowed to bind for 20 minutes. Unbound peptide and reaction mixture is decanted and the plate is washed with PBS six times. HRP-conjugated phosphotyrosine antibody supplied in the kit is incubated with the plate for one hour, then decanted. The plate is again washed with PBS six times.
Activity is determined as % inhibition as calculated by the formula: (1 - Abs/Abs(max)) x 100 = % inhibition.

[2] = system: Rat2 fibroblasts stably transformed with a plasmid containing a CMV promotor controlled v-Src/Hu c-Src fusion gene; assay: Anchorage Independent Src-transformed Fibroblast Proliferation Assay
[3] = Rattus norvegicus, Rat2, 120 h, read-out: anch-indep src-tx fib IC50, suspension growth, MTS on Day 5
[4] = read-out: anch-indep src-tx fib IC50, suspension growth, MTS on Day 5

T1 sequence (P12931 whole entry, species assumed): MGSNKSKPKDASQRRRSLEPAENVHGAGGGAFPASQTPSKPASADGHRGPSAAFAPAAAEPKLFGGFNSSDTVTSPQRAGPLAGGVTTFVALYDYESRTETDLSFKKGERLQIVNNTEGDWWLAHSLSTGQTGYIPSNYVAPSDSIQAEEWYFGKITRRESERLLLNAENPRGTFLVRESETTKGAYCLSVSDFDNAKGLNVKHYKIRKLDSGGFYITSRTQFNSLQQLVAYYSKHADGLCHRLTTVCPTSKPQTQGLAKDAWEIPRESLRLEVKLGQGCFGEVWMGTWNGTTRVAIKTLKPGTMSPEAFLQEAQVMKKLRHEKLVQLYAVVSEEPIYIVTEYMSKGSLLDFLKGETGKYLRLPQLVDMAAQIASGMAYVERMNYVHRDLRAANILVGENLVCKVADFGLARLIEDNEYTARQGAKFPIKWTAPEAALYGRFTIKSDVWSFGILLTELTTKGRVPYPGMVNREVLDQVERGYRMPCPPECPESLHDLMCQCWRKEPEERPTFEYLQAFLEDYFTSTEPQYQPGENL

For N#Cc1cnc2cc(-c3ccc(CN4CCOCC4)o3)ccc2c1Nc1ccc(Cl)cc1Cl [Example 13, 4-(2,4-Dichloroanilino)-7-[5-(4-morpholinylmethyl)-2-furyl]-3-quinolinecarbonitrile], the IC50 [1] was 10.4 nM and 4 nM, the IC50 [2, 3] was 1510 nM and the IC50 [2, 4] was 1590 nM.
Molecule COc1cc(Nc2c(C#N)cnc3cc(-c4cc5ccccc5o4)ccc23)c(Cl)cc1Cl [Example 119, 7-(1-Benzofuran-2-yl)-4-(2,4-dichloro-5-methoxyanilino)-3-quinolinecarbonitrile] has an IC50 [1] of 130 nM and an IC50 [2, 3] of over 10000 nM.
Work on COc1cc(Nc2c(C#N)cnc3cc(C#CCN4CCOCC4)c(OC)cc23)c(Cl)cc1Cl [Example 166, 4-(2,4-dichloro-5-methoxyanilino)-6-methoxy-7-[3-(4-morpholinyl)-1-propynyl]-3-quinoline-carbonitrile] yielded an IC50 [1] of 5.5 nM and an IC50 [2, 3] of 720 nM.
Work on COc1cc(Nc2c(C#N)cnc3cc(-c4ccc(CNCCS(=O)(=O)c5ccccc5)o4)ccc23)c(Cl)cc1Cl [Example 58, 4-(2,4-Dichloro-5-methoxyanilino)-7-[5-({[2-(phenylsulfonyl)ethyl]amino}methyl)-2-furyl]-3-quinolinecarbonitrile] yielded an IC50 [1] of 11 nM and an IC50 [2, 3] of 5100 nM.
COc1cc(Nc2c(C#N)cnc3cc(/C=C/C(=O)OC(C)(C)C)ccc23)c(Cl)cc1Cl [Example 142, tert-butyl (E)-3-[3-cyano-4-(2,4-dichloro-5-methoxyanilino)-7-quinolinyl]-2-propenoate] gave an IC50 [1] of 31 nM and an IC50 [2, 3] of over 10000 nM.
In the case of CCN(CC)Cc1ccc(-c2ccc3c(Nc4cc(OC)c(Cl)cc4Cl)c(C#N)cnc3c2)cc1 [Example 87, 4-(2,4-Dichloro-5-methoxyanilino)-7-{4-[(diethylamino)methyl]phenyl}-3-quinolinecarbonitrile], the IC50 [1] is reported as 0.46 nM and the IC50 [2, 3] is reported as 220 nM.
For COc1cc(Nc2c(C#N)cnc3cc(-c4cccc(NC(C)=O)c4)ccc23)c(Cl)cc1Cl [Example 118, N-{3-[3-Cyano-4-(2,4-dichloro-5-methoxyanilino)-7-quinolinyl]phenyl}acetamide], the IC50 [1] was 160 nM and the IC50 [2, 3] was 3000 nM.
For COc1cc(Nc2c(C#N)cnc3cc(-c4ccc(N5CCOCC5)cc4)ccc23)c(Cl)cc1Cl [Example 67, 4-(2,4-Dichloro-5-methoxyanilino)-7-[4-(4-morpholinyl)phenyl]-3-quinolinecarbonitrile], the IC50 [1] was 3 nM and 4.9 nM and the IC50 [2, 3] was 110 nM.
With COc1cc(Nc2c(C#N)cnc3cc(-c4cnc(CN5CCOCC5)n4C)c(OC)cc23)c(Cl)cc1Cl [Example 232, 4-(2,4-dichloro-5-methoxyanilino)-6-methoxy-7-[1-methyl-2-(4-morpholinylmethyl)-1H-imidazol-5-yl]-3-quinolinecarbonitrile] the IC50 [1] was 78 nM and the IC50 [2, 3] was 3500 nM.
With CCN1CCN(Cc2cc(-c3ccc4c(Nc5ccc(Cl)cc5Cl)c(C#N)cnc4c3)cs2)CC1 [Example 10, 4-(2,4-Dichloroanilino)-7-{5-[(4-ethyl-1-piperazinyl)methyl]-3-thienyl}-3-quinolinecarbonitrile] the IC50 [1] was 2.4 nM and the IC50 [2, 3] was 900 nM.
COc1cc(Nc2c(C#N)cnc3cc(-c4cccn4C(=O)OC(C)(C)C)ccc23)c(Cl)cc1Cl [Example 164, tert-butyl 2-[3-cyano-4-(2,4-dichloro-5-methoxyanilino)-7-quinolinyl]-1H-pyrrole-1-carboxylate] was tested, and the IC50 [1] was over 1000 nM and the IC50 [2, 3] was over 10000 nM.
Work on COc1cc(Nc2c(C#N)cnc3cc(-c4cscc4CN4CCOCC4)ccc23)c(Cl)cc1Cl [Example 65, 4-(2,4-Dichloro-5-methoxyanilino)-7-[4-(4-morpholinylmethyl)-3-thienyl]-3-quinolinecarbonitrile] yielded an IC50 [1] of 200 nM and an IC50 [2, 3] of over 10000 nM.
COc1cc(Nc2c(C#N)cnc3cc(-c4cc(CN5CCOCC5)c(CN5CCOCC5)s4)c(OC)cc23)c(Cl)cc1Cl [Example 82, 7-[4,5-Bis(4-morpholinylmethyl)-2-thienyl]-4-(2,4-dichloro-5-methoxyanilino)-6-methoxy-3-quinolinecarbonitrile] gave an IC50 [1] of 0.48 nM and an IC50 [2, 3] of 50 nM.
COc1cc(Nc2c(C#N)cnc3cc(-c4cnc(N5CCOCC5)nc4)ccc23)c(Cl)cc1Cl [Example 186, 4-(2,4-dichloro-5-methoxyanilino)-7-[2-(4-morpholinyl)-5-pyrimidinyl]-3-quinolinecarbonitrile] was tested, and the IC50 [1] was 30 nM and the IC50 [2, 3] was over 10000 nM.
In the case of CCN1CCN(CCc2ccc(-c3ccc4c(Nc5cc(OC)c(Cl)cc5Cl)c(C#N)cnc4c3)cc2)CC1 [Example 32, 4-(2,4-Dichloro-5-methoxyanilino)-7-{4-[2-(4-ethyl-1-piperazinyl)ethyl]phenyl}-3-quinolinecarbonitrile], the IC50 [1] is reported as 2.7 nM, the IC50 [2, 3] is reported as 2000 nM and the IC50 [2, 4] is reported as 1900 nM.
For COc1cc(Nc2c(C#N)cnc3cc(-c4ccc(CN5CCN(C)CC5)n4C)ccc23)c(Cl)cc1Cl [Example 71, 4-(2,4-Dichloro-5-methoxyanilino)-7-{1-methyl-5-[(4-methyl-1-piperazinyl)methyl]-1H-pyrrol-2-yl}-3-quinolinecarbonitrile], the IC50 [1] was 26 nM and 24 nM and the IC50 [2, 3] was 6800 nM.
For COc1cc(Nc2c(C#N)cnc3cc(-c4ccc(CN5CCN(CCO)CC5)o4)ccc23)c(Cl)cc1Cl [Example 75, 4-(2,4-Dichloro-5-methoxyanilino)-7-(5-{[4-(2-hydroxyethyl)-1-piperazinyl]methyl}-2-furyl)-3-quinolinecarbonitrile], the IC50 [1] was 24 nM and the IC50 [2, 3] was 290 nM.
With COc1cc(Nc2c(C#N)cnc3cc(-c4cccc(CN5CCN(C)CC5)c4)ccc23)c(Cl)cc1Cl [Example 113, 4-(2,4-Dichloro-5-methoxyanilino)-7-{3-[(4-methyl-1-piperazinyl)methyl]phenyl}-3-quinolinecarbonitrile] the IC50 [1] was 10 nM and the IC50 [2, 3] was 1400 nM.
In the case of COc1cc(Nc2c(C#N)cnc3cc(-c4ccc(CO)n4C)ccc23)c(Cl)cc1Cl [Example 162, 4-(2,4-dichloro-5-methoxyanilino)-7-[5-(hydroxymethyl)-1-methyl-1H-pyrrol-2-yl]-3-quinolinecarbonitrile], the IC50 [1] is reported as 76 nM and the IC50 [2, 3] is reported as over 10000 nM.
With N#Cc1cnc2cc(-c3ccc(CCN4CCOCC4)s3)ccc2c1Nc1ccc(Cl)cc1Cl [Example 9, 4-(2,4-Dichloroanilino)-7-{5-[2-(4-morpholinyl)ethyl]-2-thienyl}-3-quinolinecarbonitrile] the IC50 [1] was 6 nM and the IC50 [2, 3] was 2700 nM.
For COc1cc(Nc2c(C#N)cnc3cc(C#Cc4ccccc4)ccc23)c(Cl)cc1Cl [Example 140, 4-(2,4-dichloro-5-methoxyanilino)-7-(2-phenylethynyl)-3-quinolinecarbonitrile], the IC50 [1] was 240 nM and 200 nM and the IC50 [2, 3] was over 10000 nM.
COc1cc(Nc2c(C#N)cnc3cc(-c4csc(CN5CCOCC5)c4)ccc23)c(Cl)cc1C [Example 80, 4-{2-Chloro-5-methoxy-4-methylanilino)-7-[5-(4-morpholinylmethyl)-3-thienyl]-3-quinolinecarbonitrile] showed an IC50 [1] of 1.5 nM and an IC50 [2, 3] of 80 nM.
Molecule COc1cc(Nc2c(C#N)cnc3cc(-c4ccc[nH]4)ccc23)c(Cl)cc1Cl [Example 104, 4-(2,4-Dichloro-5-methoxyanilino)-7-(1H-pyrrol-2-yl)-3-quinolinecarbonitrile] has an IC50 [1] of 14 nM and an IC50 [2, 3] of 560 nM.
COc1ccc(-c2ccc3c(Nc4cc(OC)c(Cl)cc4Cl)c(C#N)cnc3c2)cc1 [Example 194, 4-(2,4-dichloro-5-methoxyanilino)-7-(4-methoxyphenyl)-3-quinolinecarbonitrile] gave an IC50 [1] of 12 nM and an IC50 [2, 3] of over 10000 nM.
COc1cc(Nc2c(C#N)cnc3cc(C#CCO)ccc23)c(Cl)cc1Cl [Example 143, 4-(2,4-dichloro-5-methoxyanilino)-7-(3-hydroxy-1-propynyl)-3-quinolinecarbonitrile] showed an IC50 [1] of 26 nM and an IC50 [2, 3] of over 10000 nM.
For COc1cc(Nc2c(C#N)cnc3cc(-c4ccc(CCl)cc4)ccc23)c(Cl)cc1Cl [Example 102, 7-[4-(Chloromethyl)phenyl]-4-(2,4-dichloro-5-methoxyanilino)-3-quinolinecarbonitrile], the IC50 [1] was 18 nM and the IC50 [2, 3] was 7500 nM.
With COc1cc(Nc2c(C#N)cnc3cc(-c4ccc(CN(CCO)CCO)o4)ccc23)c(Cl)cc1Cl [Example 76, 7-(5-{[Bis(2-hydroxyethyl)amino]methyl}-2-furyl)-4-(2,4-dichloro-5-methoxyanilino)-3-quinolinecarbonitrile] the IC50 [1] was 22 nM and the IC50 [2, 3] was 1100 nM.
With COc1cc(Nc2c(C#N)cnc3cc(-n4cccc4CN(C)C)ccc23)c(Cl)cc1Cl [Example 93] the IC50 [1] was 610 nM and 680 nM and the IC50 [2, 4] was over 10000 nM.
COc1cc(Nc2c(C#N)cnc3cc(-c4ccc(CN5CCOCC5)o4)ccc23)c(Cl)cc1Cl [Example 53, 4-(2.4-Dichloro-5-methoxyanilino)-7-[5-(4-morpholinylmethyl)-2-furyl]-3-quinolinecarbonitrile] showed an IC50 [1] of 2.9 nM and an IC50 [2, 3] of 250 nM.
Molecule COc1ccc(Cl)c(Nc2c(C#N)cnc3cc(-c4csc(CN5CCOCC5)c4)ccc23)c1 [Example 131, 4-(2-chloro-5-methoxyanilino)-7-[5-(4-morpholinylmethyl)-3-thienyl]-3-quinolinecarbonitrile] has an IC50 [1] of 2 nM and an IC50 [2, 3] of 90 nM.
